Experimental data from DBAASP.
≈ marks a conversion by molar mass, not a printed value. Where “and” joins values, the source holds several entries; their conditions need not be identical. Identical values can stand only once. Each block holds one compound with its values, some of them ahead of it.

Assays:
Experiment in all cases: ≥ marks a high value that may be exact or a test limit, other limits are often not marked, values filed in µg/mL are converted to µM
[1] = test system: Mycobacterium tuberculosis H37Rv
[2] = test system: Pseudomonas aeruginosa 253
[3] = test system: Escherichia coli ATCC 25922
[4] = test system: Pseudomonas aeruginosa 919
[5] = test system: Enterococcus faecalis NCTC 12203
Escherichia coli UB1005 = test system: Escherichia coli UB1005
[6] = test system: Staphylococcus aureus ATCC 25923
Candida albicans = test system: Candida albicans
[7] = test system: Salmonella enterica serovar Typhimurium
Staphylococcus aureus MR = test system: Staphylococcus aureus MR
[8] = test system: Pseudomonas aeruginosa H103
[9] = test system: Staphylococcus epidermidis
[10] = test system: Pseudomonas aeruginosa PAO1
Escherichia coli = test system: Escherichia coli
[11] = test system: Enterococcus faecalis ATCC 29212
[12] = test system: Staphylococcus aureus ATCC 29213
[13] = test system: Pseudomonas aeruginosa 910
[14] = test system: Escherichia coli NBRC 14237
[15] = test system: Saccharomyces cerevisiae NBRC 10217
[16] = test system: Staphylococcus aureus NBRC 12732
Escherichia coli TOP 10 = test system: Escherichia coli TOP 10
[17] = test system: Pseudomonas aeruginosa ATCC 27853
[18] = test system: Staphylococcus aureus Xen36
Escherichia coli ESBL = test system: Escherichia coli ESBL
[19] = test system: Staphylococcus aureus ATCC BAA-1696
Pseudomonas aeruginosa = test system: Pseudomonas aeruginosa
[20] = test system: Klebsiella pneumoniae ESBL 344/17
[21] = test system: Staphylococcus aureus SG511
Escherichia coli ML-35p = test system: Escherichia coli ML-35p
[22] = test system: Staphylococcus aureus 1399/17
[23] = test system: Escherichia coli ESBL 521/17
[24] = test system: Acinetobacter baumannii 7226/16
[25] = test system: Staphylococcus aureus ATCC 33591
[26] = test system: Pseudomonas aeruginosa 522/17
[27] = test system: Escherichia coli DH5alpha
[28] = test system: Staphylococcus aureus USA 300
[29] = test system: Mycobacterium tuberculosis H37Ra
[30] = test system: Staphylococcus aureus NRS 72
Bacillus subtilis 168 = test system: Bacillus subtilis 168

SMILES: CC[C@H](C)[C@H](NC(=O)[C@H](CCCN=C(N)N)NC(=O)[C@H](CCCN=C(N)N)NC(=O)[C@H](CCCN=C(N)N)NC(=O)[C@H](CO)NC(=O)[C@H](Cc1ccccc1)NC(=O)[C@H](CC(=O)O)NC(=O)[C@H](Cc1ccccc1)NC(=O)[C@H](CCCN=C(N)N)NC(=O)[C@H](CCCN=C(N)N)NC(=O)[C@H](CCCN=C(N)N)NC(=O)[C@@H](N)CO)C(=O)N[C@@H](Cc1ccc(O)cc1)C(=O)N[C@H](C(=O)N[C@@H](C)C(=O)N[C@@H](CCCN=C(N)N)C(=O)N[C@@H](CCCN=C(N)N)C(=O)N[C@@H](CCCN=C(N)N)C(=O)N[C@@H](CO)C(=O)N[C@@H](CC(C)C)C(=O)N[C@@H](C)C(=O)N[C@@H](Cc1ccccc1)C(=O)N[C@@H](C)C(=O)N[C@@H](Cc1cnc[nH]1)C(=O)N[C@@H](CCCN=C(N)N)C(=O)N[C@@H](CCCN=C(N)N)C(=O)N[C@@H](CCCN=C(N)N)C(=O)O)C(C)C [SRRRFDFSRRRIYVARRRSLAFAHRRR]
MIC [14]: 6.25 µM (≈ 22.2 µg/mL)
MIC [15]: 6.25 µM (≈ 22.2 µg/mL)
MIC [16]: 6.25 µM (≈ 22.2 µg/mL)

SMILES: CC[C@H](C)[C@H](NC(=O)[C@H](CCCN=C(N)N)NC(=O)[C@@H](NC(=O)[C@@H]1CCCN1C(=O)[C@@H]1CCCN1C(=O)[C@H](CCCN=C(N)N)NC(=O)[C@H](CCCN=C(N)N)NC(=O)[C@H](Cc1ccccc1)NC(=O)[C@@H]1CCCN1C(=O)[C@H](CC(C)C)NC(=O)[C@H](CCCN=C(N)N)NC(=O)[C@H](Cc1ccccc1)NC(=O)[C@@H](N)CCCN=C(N)N)[C@@H](C)CC)C(=O)N[C@@H](Cc1cnc[nH]1)C(N)=O [RFRLPFRRPPIRIH]
MIC [20]: 16 µM (≈ 29.8 µg/mL)
MIC [21]: 2 µM (≈ 3.72 µg/mL)
MIC (Escherichia coli ML-35p): 8 µM (≈ 14.9 µg/mL)
MIC [22]: ≥ 128 µM
MIC [23]: 16 µM (≈ 29.8 µg/mL)
MIC [24]: 16 µM (≈ 29.8 µg/mL)
MIC [25]: 16 µM (≈ 29.8 µg/mL)
MIC [26]: ≥ 64 µM

Further lines, results first:

MIC [1]: 1.92 µM (≈ 3.2 µg/mL)
MIC [2]: 8 µM (≈ 13.3 µg/mL)
MIC [3]: 2 µM (≈ 3.33 µg/mL)
MIC [4]: 16 µM (≈ 26.6 µg/mL)
MIC [5]: 1.2 µM (≈ 2 µg/mL)
MIC (Escherichia coli UB1005): 0.601 µM (≈ 1 µg/mL)
MIC [6]: 4 µM (≈ 6.66 µg/mL)
MIC (Candida albicans): 2.4 µM (≈ 4 µg/mL)
MIC [7]: 2.4 µM (≈ 4 µg/mL)
MIC (Staphylococcus aureus MR): 1.2 µM (≈ 2 µg/mL)
MIC [8]: 1.2 µM (≈ 2 µg/mL)
MIC [9]: 0.12 µM and 0.3 µM
MIC [10]: 8 µM (≈ 13.3 µg/mL)
MIC (Escherichia coli): 1.2 µM (≈ 2 µg/mL)
MIC [11]: 2.4 µM (≈ 4 µg/mL)
MIC [12]: 1.2 µM (≈ 2 µg/mL)
MIC [13]: 16 µM (≈ 26.6 µg/mL)
SMILES: CC[C@H](C)[C@H](NC(=O)[C@H](CCCN=C(N)N)NC(=O)[C@H](Cc1c[nH]c2ccccc12)NC(=O)[C@H](CCCN=C(N)N)NC(=O)[C@@H](N)CCCN=C(N)N)C(=O)N[C@H](C(=O)N[C@H](C(=O)N[C@H](C(=O)N[C@@H](CCCN=C(N)N)C(=O)N[C@H](C(=O)N[C@@H](CCCN=C(N)N)C(=O)N[C@@H](CCCN=C(N)N)C(=O)O)C(C)C)[C@@H](C)CC)C(C)C)C(C)C [RRWRIVVIRVRR]

MIC (Escherichia coli TOP 10): 5.47 µM (≈ 12.5 µg/mL)
SMILES: CC[C@H](C)[C@H](NC(=O)[C@H](CCCCN)NC(=O)[C@H](CO)NC(=O)[C@@H](NC(=O)[C@@H](NC(=O)[C@H](CC(N)=O)NC(=O)[C@H](CCCCN)NC(=O)[C@H](Cc1ccccc1)NC(=O)[C@H](C)NC(=O)[C@@H]1CCCN1C(=O)[C@H](CC(C)C)NC(=O)[C@@H](N)Cc1ccccc1)C(C)C)[C@@H](C)CC)C(=O)N[C@@H](CC(C)C)C(=O)N[C@@H](CCCCN)C(=O)N[C@@H](C)C(=O)N[C@@H](CC(C)C)C(=O)N[C@@H](CCCCN)C(=O)N[C@@H](CCCCN)C(=O)N[C@@H](CCCCN)C(=O)N[C@H](C(N)=O)C(C)C [FLPAFKNVISKILKALKKKV]

MIC [17]: 3.19 µM (≈ 8 µg/mL)
MIC [3]: 3.19 µM (≈ 8 µg/mL)
MIC [18]: 3.27 µM (≈ 8.19 µg/mL)
MIC (Escherichia coli ESBL): 2.26 µM (≈ 5.66 µg/mL)
MIC [19]: 3.27 µM (≈ 8.19 µg/mL)
MIC [6]: 1.6 µM (≈ 4 µg/mL)
MIC (Staphylococcus aureus MR): 1.6 µM (≈ 4 µg/mL)
MIC (Pseudomonas aeruginosa): 6.39 µM (≈ 16 µg/mL)
MIC [12]: > 3.27 µM
SMILES: NCCCC[C@H](NC(=O)CNC(=O)[C@H](CCCCN)NC(=O)[C@H](CC(N)=O)NC(=O)[C@H](CCCCN)NC(=O)[C@H](Cc1cnc[nH]1)NC(=O)[C@H](CCCCN)NC(=O)CN)C(=O)N[C@@H](CCCCN)C(=O)N[C@@H](CC(N)=O)C(=O)NCC(=O)N[C@@H](CCCCN)C(=O)N[C@@H](Cc1cnc[nH]1)C(=O)N[C@@H](CC(N)=O)C(=O)NCC(=O)N[C@@H](Cc1c[nH]c2ccccc12)C(=O)N[C@@H](CCCCN)C(=O)N[C@@H](Cc1c[nH]c2ccccc12)C(=O)N[C@@H](Cc1c[nH]c2ccccc12)C(=O)N[C@@H](Cc1c[nH]c2ccccc12)C(=O)O [GKHKNKGKKNGKHNGWKWWW]

MIC [27]: ≥ 80 µM
MIC [28]: ≥ 80 µM
MIC [29]: ≥ 80 µM
MIC [30]: ≥ 80 µM
MIC [10]: > 80 µM
MIC (Bacillus subtilis 168): ≥ 80 µM
SMILES: CC(C)C[C@H](NC(=O)[C@H](Cc1cnc[nH]1)NC(=O)[C@H](CO)NC(=O)[C@H](CC(N)=O)NC(=O)[C@H](CCCCN)NC(=O)[C@H](CCCCN)NC(=O)[C@H](Cc1ccccc1)NC(=O)[C@H](Cc1c[nH]c2ccccc12)NC(=O)[C@H](CCCCN)NC(=O)CNC(=O)[C@H](Cc1c[nH]c2ccccc12)NC(=O)[C@@H](N)CCCN=C(N)N)C(=O)N[C@@H](CO)C(N)=O [RWGKWFKKNSHLS]
